Assay results published in PMC4503722, “Novel Phenotypic Outcomes Identified for a Public Collection of Approved Drugs from a Publicly Accessible Panel of Assays” (PLoS ONE, 2015).
Read-outs that look alike come from different tables or passages of the source.

Legend:
[1] = system: HCT116 cells treated with a GSK3β inhibitor; assay: cells; type: cell-based; settings: Homo sapiens
[2] = system: HT-29; assay: cells; type: cell-based
[3] = system: RKO; assay: cells; type: cell-based
[4] = system: nuclear β-catenin in C2C12 cells; assay: cells; type: cell-based
[5] = biological target: T1, hp70S6K1 (RPS6KB1) (Homo sapiens, UniProt P23443); assay: Cerep LANCE kinase assay hp70S6K1 (S1 assay 31); type: biochemical; settings: read-out: p70S6K1
T1 construct: purchased Cerep (LANCE kinase assay platform, contract assay)

[6] = system: Colo320; assay: cells; type: cell-based; settings: Homo sapiens
[7] = system: HeLa cells; assay: cells; type: cell-based; settings: read-out: CellCycle G2/M
[8] = biological target: T2, hKDR (Homo sapiens, UniProt P35968); assay: Cerep LANCE kinase assay hKDR (S1 assay 32); type: biochemical; settings: read-out: KDR
T2 construct: purchased Cerep (LANCE kinase assay platform, contract assay)

[9] = biological target: T3, hJAK2 (Homo sapiens, UniProt O60674); assay: Cerep LANCE kinase assay hJAK2 (S1 assay 33); type: biochemical; settings: read-out: JAK2
T3 construct: purchased Cerep (LANCE kinase assay platform, contract assay)

[10] = system: endothelial tube formation in co-cultures of ECFCs and ADSCs treated with VEGF; assay: cells; type: cell-based, human
[11] = system: NCI-H716 cells; assay: cells; type: cell-based, Human
[12] = biological target: T4, hFLT3 (Homo sapiens, UniProt P36888); assay: Cerep LANCE kinase assay hFLT3 (S1 assay 35); type: biochemical; settings: read-out: FLT3
T4 construct: purchased Cerep (LANCE kinase assay platform, contract assay)

[13] = system: INS-1E cells; assay: cells; type: cell-based, rat
[14] = biological target: T5, hGSK3b (Homo sapiens, UniProt P49841); assay: Cerep LANCE kinase assay hGSK3b (S1 assay 34); type: biochemical; settings: read-out: GSK3b
T5 construct: purchased Cerep (LANCE kinase assay platform, contract assay)

[15] = system: HCT116; assay: cells; type: cell-based; settings: Homo sapiens
[16] = system: SNU-C1; assay: cells; type: cell-based; settings: Homo sapiens
[17] = system: DLD-1; assay: cells; type: cell-based; settings: Homo sapiens
[18] = system: SW480; assay: cells; type: cell-based; settings: Homo sapiens
[19] = HCT-116, read-out: GSK3b inh pretreated_Viability ATP HCT116
[20] = Homo sapiens, HT-29, read-out: Basal_Viability ATP HT-29
[21] = Homo sapiens, RKO, read-out: Basal_Viability ATP RKO
[22] = Mus musculus, C2C12, read-out: Wnt Pathway
[23] = COLO 320, read-out: Basal_Viability ATP Colo 320
[24] = Homo sapiens, read-out: Anti-Angiogenesis
[25] = Homo sapiens, NCI-H716, read-out: GLP 1 Secretion
[26] = Rattus norvegicus, INS-1E, read-out: Insulin Secretion

T5 sequence (P49841 whole entry): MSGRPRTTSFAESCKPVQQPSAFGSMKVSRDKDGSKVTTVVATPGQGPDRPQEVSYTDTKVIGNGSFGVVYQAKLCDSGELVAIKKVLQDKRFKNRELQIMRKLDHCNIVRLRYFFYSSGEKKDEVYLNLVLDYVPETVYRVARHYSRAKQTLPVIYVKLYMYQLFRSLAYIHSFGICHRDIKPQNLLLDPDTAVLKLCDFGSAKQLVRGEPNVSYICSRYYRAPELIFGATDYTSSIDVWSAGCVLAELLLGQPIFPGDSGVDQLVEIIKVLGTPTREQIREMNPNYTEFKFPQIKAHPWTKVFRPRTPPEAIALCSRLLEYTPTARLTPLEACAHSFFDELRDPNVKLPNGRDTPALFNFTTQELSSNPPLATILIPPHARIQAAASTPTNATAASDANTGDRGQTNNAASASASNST
T4 sequence (P36888 27-993): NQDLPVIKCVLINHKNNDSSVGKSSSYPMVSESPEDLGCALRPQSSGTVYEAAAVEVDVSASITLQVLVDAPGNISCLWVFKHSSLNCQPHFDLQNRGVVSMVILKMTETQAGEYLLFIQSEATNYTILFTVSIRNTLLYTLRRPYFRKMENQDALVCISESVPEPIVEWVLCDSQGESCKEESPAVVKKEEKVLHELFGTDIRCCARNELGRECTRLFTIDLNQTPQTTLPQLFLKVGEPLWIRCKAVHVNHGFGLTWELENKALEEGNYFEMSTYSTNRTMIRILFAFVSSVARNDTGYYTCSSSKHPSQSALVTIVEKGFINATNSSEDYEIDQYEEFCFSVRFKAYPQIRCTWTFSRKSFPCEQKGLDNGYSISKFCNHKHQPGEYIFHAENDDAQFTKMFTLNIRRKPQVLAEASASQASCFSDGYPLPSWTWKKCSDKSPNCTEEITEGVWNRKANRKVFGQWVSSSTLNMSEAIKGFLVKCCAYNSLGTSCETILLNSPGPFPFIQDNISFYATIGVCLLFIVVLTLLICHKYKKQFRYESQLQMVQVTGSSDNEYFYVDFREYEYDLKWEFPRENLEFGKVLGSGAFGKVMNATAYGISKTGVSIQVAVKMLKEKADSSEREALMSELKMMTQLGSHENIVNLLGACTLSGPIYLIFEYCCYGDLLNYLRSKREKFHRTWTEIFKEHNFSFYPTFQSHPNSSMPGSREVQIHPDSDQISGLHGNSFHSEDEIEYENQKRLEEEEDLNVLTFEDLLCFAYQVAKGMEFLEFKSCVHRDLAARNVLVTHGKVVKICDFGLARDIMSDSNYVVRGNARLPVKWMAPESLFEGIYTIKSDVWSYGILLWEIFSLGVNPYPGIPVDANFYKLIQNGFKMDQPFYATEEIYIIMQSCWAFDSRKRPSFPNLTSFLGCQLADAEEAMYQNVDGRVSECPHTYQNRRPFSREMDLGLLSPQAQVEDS
T2 sequence (P35968 20-1356): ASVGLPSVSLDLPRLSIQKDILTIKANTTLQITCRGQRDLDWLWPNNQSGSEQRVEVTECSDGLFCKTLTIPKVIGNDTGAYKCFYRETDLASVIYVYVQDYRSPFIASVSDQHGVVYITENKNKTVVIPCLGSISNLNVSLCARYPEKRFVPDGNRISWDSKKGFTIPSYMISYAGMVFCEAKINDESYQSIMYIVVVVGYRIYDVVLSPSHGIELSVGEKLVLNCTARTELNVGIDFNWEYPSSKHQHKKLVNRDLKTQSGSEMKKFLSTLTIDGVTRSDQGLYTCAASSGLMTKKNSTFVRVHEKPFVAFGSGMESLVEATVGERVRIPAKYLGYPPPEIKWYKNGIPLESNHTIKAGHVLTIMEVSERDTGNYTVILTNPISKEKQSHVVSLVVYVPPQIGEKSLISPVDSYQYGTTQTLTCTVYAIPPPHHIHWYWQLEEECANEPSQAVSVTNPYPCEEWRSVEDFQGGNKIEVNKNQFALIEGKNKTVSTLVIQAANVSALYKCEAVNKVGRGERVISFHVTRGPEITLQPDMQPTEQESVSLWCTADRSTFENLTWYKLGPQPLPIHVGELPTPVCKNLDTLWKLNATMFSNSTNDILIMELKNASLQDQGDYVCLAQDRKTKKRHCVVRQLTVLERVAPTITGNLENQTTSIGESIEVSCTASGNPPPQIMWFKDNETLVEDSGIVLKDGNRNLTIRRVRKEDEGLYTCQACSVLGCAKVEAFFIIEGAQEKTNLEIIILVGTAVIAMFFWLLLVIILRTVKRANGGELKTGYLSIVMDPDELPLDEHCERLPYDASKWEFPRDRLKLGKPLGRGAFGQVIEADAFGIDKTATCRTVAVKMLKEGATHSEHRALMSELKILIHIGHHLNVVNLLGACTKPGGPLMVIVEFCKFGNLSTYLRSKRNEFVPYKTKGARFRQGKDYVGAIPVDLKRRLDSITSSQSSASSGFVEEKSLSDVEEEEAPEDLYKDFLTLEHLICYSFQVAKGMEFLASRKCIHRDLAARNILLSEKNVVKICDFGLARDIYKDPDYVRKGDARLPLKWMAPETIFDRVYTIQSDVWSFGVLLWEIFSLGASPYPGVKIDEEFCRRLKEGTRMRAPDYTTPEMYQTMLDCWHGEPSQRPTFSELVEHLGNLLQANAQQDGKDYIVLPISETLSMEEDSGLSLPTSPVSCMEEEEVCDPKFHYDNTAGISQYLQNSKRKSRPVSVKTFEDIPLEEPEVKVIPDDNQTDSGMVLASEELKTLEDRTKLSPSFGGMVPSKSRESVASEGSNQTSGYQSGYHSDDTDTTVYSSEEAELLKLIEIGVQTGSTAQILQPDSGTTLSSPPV
T1 sequence (P23443 whole entry): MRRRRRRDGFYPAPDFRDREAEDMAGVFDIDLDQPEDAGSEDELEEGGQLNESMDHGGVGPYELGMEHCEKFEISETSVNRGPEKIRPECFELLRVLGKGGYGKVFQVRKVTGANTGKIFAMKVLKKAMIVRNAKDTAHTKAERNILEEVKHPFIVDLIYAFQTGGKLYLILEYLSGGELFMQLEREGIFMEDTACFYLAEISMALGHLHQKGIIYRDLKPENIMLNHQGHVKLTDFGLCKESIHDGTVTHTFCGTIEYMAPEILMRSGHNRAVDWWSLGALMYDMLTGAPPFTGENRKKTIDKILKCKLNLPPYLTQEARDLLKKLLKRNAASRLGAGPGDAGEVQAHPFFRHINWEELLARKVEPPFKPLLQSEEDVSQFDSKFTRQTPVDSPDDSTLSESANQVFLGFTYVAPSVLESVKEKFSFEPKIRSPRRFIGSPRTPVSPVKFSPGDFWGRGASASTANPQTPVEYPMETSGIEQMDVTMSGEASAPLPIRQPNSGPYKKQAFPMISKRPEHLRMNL
T3 sequence (O60674 whole entry): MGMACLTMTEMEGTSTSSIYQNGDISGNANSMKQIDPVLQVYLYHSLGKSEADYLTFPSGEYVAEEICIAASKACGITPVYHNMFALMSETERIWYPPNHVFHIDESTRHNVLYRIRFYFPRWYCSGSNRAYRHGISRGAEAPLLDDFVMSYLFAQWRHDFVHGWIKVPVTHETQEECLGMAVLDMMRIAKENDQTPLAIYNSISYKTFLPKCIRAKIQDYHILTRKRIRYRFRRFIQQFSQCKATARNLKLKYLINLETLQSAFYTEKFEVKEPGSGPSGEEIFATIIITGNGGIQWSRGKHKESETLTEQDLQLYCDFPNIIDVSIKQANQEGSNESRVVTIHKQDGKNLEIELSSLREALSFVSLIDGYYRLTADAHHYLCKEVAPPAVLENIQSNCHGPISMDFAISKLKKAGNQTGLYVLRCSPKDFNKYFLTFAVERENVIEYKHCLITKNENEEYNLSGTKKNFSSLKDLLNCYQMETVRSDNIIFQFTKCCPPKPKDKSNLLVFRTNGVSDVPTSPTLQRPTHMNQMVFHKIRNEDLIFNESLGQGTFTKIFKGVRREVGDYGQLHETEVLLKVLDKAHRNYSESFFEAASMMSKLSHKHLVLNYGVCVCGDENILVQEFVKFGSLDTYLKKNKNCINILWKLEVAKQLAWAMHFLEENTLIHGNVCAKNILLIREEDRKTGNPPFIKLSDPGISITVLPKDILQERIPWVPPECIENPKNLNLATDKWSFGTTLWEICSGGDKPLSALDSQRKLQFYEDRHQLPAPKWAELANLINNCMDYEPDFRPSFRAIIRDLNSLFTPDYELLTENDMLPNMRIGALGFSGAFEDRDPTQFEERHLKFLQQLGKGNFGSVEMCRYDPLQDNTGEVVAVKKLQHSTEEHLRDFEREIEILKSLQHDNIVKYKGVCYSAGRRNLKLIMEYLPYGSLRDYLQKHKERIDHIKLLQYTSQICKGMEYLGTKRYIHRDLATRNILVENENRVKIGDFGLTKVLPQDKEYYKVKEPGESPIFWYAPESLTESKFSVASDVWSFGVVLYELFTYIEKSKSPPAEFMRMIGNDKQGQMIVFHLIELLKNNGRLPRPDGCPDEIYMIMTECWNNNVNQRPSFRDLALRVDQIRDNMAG

`CC[C@]1(O)C[C@@H]2CN(CCc3c([nH]c4ccccc34)[C@@](C(=O)OC)(c3cc4c(cc3OC)N(C)[C@H]3[C@@](O)(C(=O)OC)[C@H](OC(C)=O)[C@]5(CC)C=CCN6CC[C@]43[C@@H]65)C2)C1` [Vinblastine] gave an IC50 [1, 19] of 1 nM, an IC50 [2, 20] of 1 nM and an IC50 [3, 21] of 1 nM. It also gave an EC50 [4, 22] of 5.8 nM, an EC50 ([4]; read-out: Wnt Pathway) of 3.5 nM and an IC50 [5] of over 20000 nM. It also gave an IC50 [6, 23] of 1 nM, an EC50 ([7]; Homo sapiens, HeLa) of 3.2 nM and an EC50 [7] of 4.83 nM. The IC50 [8] was over 20000 nM, the IC50 [9] was over 20000 nM and the IC50 [10, 24] was 2.3 nM. The IC50 ([10]; read-out: Anti-Angiogenesis) was 2.6 nM, the EC50 [11, 25] was over 10000 nM and the IC50 [12] was over 20000 nM. The EC50 [13, 26] was over 10000 nM and the IC50 [14] was over 20000 nM.

`COc1c(C)c2c(c(O)c1C/C=C(\C)CCC(=O)O)C(=O)OC2` [Mycophenolate] showed an IC50 ([15]; HCT-116, read-out: Basal_Viability ATP HCT116) of 67.2 nM, an IC50 ([16]; SNU-C1, read-out: Basal_Viability ATP SNU-C1) of over 20000 nM and an IC50 [1, 19] of 49.8 nM. For the same compound, the IC50 ([17]; DLD-1, read-out: Basal_Viability ATP DLD-1) was over 20000 nM, the IC50 [2, 20] was over 20000 nM and the IC50 [3, 21] was 165 nM. The EC50 [4, 22] was over 10000 nM, the IC50 ([5]; kinase assay) was over 20000 nM and the IC50 [6, 23] was 1 nM. The EC50 ([7]; Homo sapiens, HeLa) was over 10000 nM, the IC50 ([8]; kinase assay) was over 20000 nM and the IC50 ([9]; kinase assay) was over 20000 nM. It also gave an IC50 ([18]; SW480, read-out: Basal_Viability ATP SW480) of 2600 nM, an IC50 [10, 24] of 1260 nM and an EC50 [11, 25] of over 10000 nM. It also gave an IC50 ([12]; kinase assay) of over 20000 nM, an EC50 [13, 26] of over 10000 nM and an IC50 ([14]; kinase assay) of over 20000 nM.

With `COC(=O)Nc1nc2ccc(Sc3ccccc3)cc2[nH]1` [Fenbendazole] the IC50 ([15]; HCT-116, basal, HCT116, read-out: Basal_Viability ATP HCT116) was 1 nM, the IC50 ([16]; SNU-C1, basal, SNU-C1, read-out: Basal_Viability ATP SNU-C1) was over 20000 nM and the IC50 ([1]; HCT-116, HCT116 pretreated with GSK3b inhibitor, read-out: GSK3b inh pretreated_Viability ATP HCT116) was 3 nM. The IC50 ([17]; DLD-1, basal, DLD-1, read-out: Basal_Viability ATP DLD-1) was 67.3 nM, the IC50 ([2]; Homo sapiens; basal; HT-29; read-out: Basal_Viability ATP HT-29) was over 20000 nM and the IC50 ([3]; Homo sapiens; basal; RKO; read-out: Basal_Viability ATP RKO) was 1 nM. The EC50 ([4]; Mus musculus, C2C12; read-out: Wnt Pathway) was 438 nM, the IC50 ([5]; kinase assay) was over 20000 nM and the IC50 ([6]; basal, Colo 320, read-out: Basal_Viability ATP Colo 320) was over 20000 nM. The EC50 ([7]; Homo sapiens, HeLa, S2 Table, HeLa, 20 = no response at highest concentration) was 195 nM, the IC50 ([8]; kinase assay) was over 20000 nM and the IC50 ([9]; kinase assay) was over 20000 nM. For the same compound, the IC50 ([18]; SW480, basal, SW480, read-out: Basal_Viability ATP SW480) was over 20000 nM, the IC50 ([10]; Homo sapiens; read-out: Anti-Angiogenesis) was 207 nM and the EC50 ([11]; Homo sapiens, NCI-H716; read-out: GLP 1 Secretion) was over 20000 nM. The IC50 ([12]; kinase assay) was over 20000 nM, the EC50 ([13]; Rattus norvegicus, INS-1E; read-out: Insulin Secretion) was over 10000 nM and the IC50 ([14]; kinase assay) was over 20000 nM.

Work on `COc1cccc2c1C(=O)c1c(O)c3c(c(O)c1C2=O)C[C@@](O)(C(C)=O)C[C@@H]3O[C@H]1C[C@H](N)[C@H](O)[C@H](C)O1` [Daunorubicin] yielded an IC50 ([15]; HCT-116, basal, read-out: Basal_Viability ATP HCT116) of 50.9 nM, an IC50 ([16]; SNU-C1, basal, read-out: Basal_Viability ATP SNU-C1) of 338 nM and an IC50 ([1]; HCT-116, GSK3b inhibitor pretreated, read-out: GSK3b inh pretreated_Viability ATP HCT116) of 55.4 nM. For the same compound, the IC50 ([17]; DLD-1, basal, read-out: Basal_Viability ATP DLD-1) was 188 nM, the IC50 ([2]; Homo sapiens, HT-29; read-out: Basal_Viability ATP HT-29) was 648 nM and the IC50 ([3]; Homo sapiens, RKO; read-out: Basal_Viability ATP RKO) was 118 nM. For the same compound, the EC50 ([4]; Mus musculus, C2C12, IC50 / EC50; C2C12 beta-catenin translocation; read-out: Wnt Pathway) was 6.1 nM, the IC50 [5] was over 20000 nM and the IC50 [6, 23] was 9250 nM. The EC50 ([7]; Homo sapiens, HeLa, IC50 / EC50, HeLa) was 46.5 nM, the IC50 [8] was over 20000 nM and the IC50 [9] was over 20000 nM. It also gave an IC50 ([18]; SW480, basal, read-out: Basal_Viability ATP SW480) of 1470 nM, an IC50 ([10]; Homo sapiens, IC50 / EC50; endothelial tube area, ADSC/ECFC co-culture; read-out: Anti-Angiogenesis) of over 10000 nM and an EC50 ([11]; Homo sapiens; IC50 / EC50; NCI-H716; read-out: GLP 1 Secretion) of over 10000 nM. It also gave an IC50 [12] of over 20000 nM, an EC50 ([13]; Rattus norvegicus; IC50 / EC50; INS-1E; read-out: Insulin Secretion) of over 10000 nM and an IC50 [14] of over 20000 nM.
